Laboratory results as given in patent publication US12128013B2, “Toxic aldehyde related diseases and treatment” (Aldeyra Therapeutics, Inc., priority 2013, dated 2024).
“Also recorded” adds a separate entry of the source.

Tests used:
[1] = Reaction with MDA salt in glyceryl trioleate / Captisol-PBS / linoleic acid, monitored by LC/MS; conditions: 0.064 mmol compound and MDA, ambient temperature
Protocol: To five separate reaction vials was added Compounds 1, 2, 12, 14, and 16, respectively (0.064 mmol), MDA salt (22.7% MDA, 0.064 mmol), and glyceryl trioleate (600 mg). To the mixture was added 20 wt % Capitsol in aqueous PBS (˜2.5 ml), followed by linoleic acid (600 mg). The reaction mixture was stirred vigorously at ambient temperature and monitored by LC/MS. […] Other MDA adducts were also formed at different time points of the reactions.

[2] = Aldehyde trapping (FIG. 1), MDA
contact dermatitis = assay: Contact dermatitis, phorbol myristate acetate (PMA) model, pinna thickness; assay type: in vivo, mice; conditions: single dose, FIG. 5A
Protocol: To determine the efficacy of Compound 9 in treating contact dermatitis, phorbol myristate acetate (“PMA”) was applied topically (2.5 μg in 20 μL) to both the anterior and posterior portions of the right pinna of mice (N=10 per group). As a control, the left pinna received 20 μL of ethanol (PMA excipient) to both the anterior and posterior portions. Six hours after the PMA application, both the right and left pinna thickness was determined. Measurements were determined at least twice from the same region of both ears, with care taken not to include hair or folded pinna.

allergic dermatitis = assay: Allergic dermatitis, oxazolone (OXL) model, pinna thickness; assay type: in vivo, mice; conditions: single dose 100 mg/kg intraperitoneally, FIG. 5B
Protocol: To measure the efficacy of Compound 9 in treating allergic dermatitis, oxazolone (“OXL”) was applied (1.5%, 100 μL in acetone) to the shaved abdomens of mice. Seven days later, the thickness of the pinna of the OXL treated mice was determined. Then Compound 9 (100 mg/kg) or the vehicle (i.e., Captisol) was administered intraperitoneally to mice followed by topical application of OXL (1%, 20 μL) 30 min later to both the anterior and posterior portions of the right pinna. As a control, the left pinna received 20 μL of acetone (OXL excipient) to both the anterior and posterior portions. The thickness of the pinna of both ears was measured again 24 hours later. N=10 per group.

circulating cytokines = assay: LPS exposure in mice, ELISA of circulating cytokines; assay type: in vivo, Male C57BI/6 mice; conditions: single dose 30 minutes before LPS (20 mg/kg), blood two hours after LPS
Protocol: Male C57BI/6 mice were dosed with Compound 9 30 minutes before they were exposed to LPS (20 mg/kg). Two hours after the LPS exposure, blood was collected from the mice and an ELISA was conducted to determine the amount of circulating cytokines.

[3] = system: Primary rat cortical cultures; assay: LDH assay in primary rat cortical cultures; assay type: cell-based; conditions: 24 or 48 hours, various concentrations; FIG. 2
Protocol: Primary rat cortical cultures were placed in an incubator for 24 or 48 hours and treated with various concentrations of Compound 9. Then 20 μL of the culture media was removed for an LDH assay as described in Bergmeyer et al., Methods of Enzymatic Analysis, 3rd ed. (1983).

[4] = Aldehyde trapping (FIG. 1), HNE
[5] = system: radiation induced fibrosis; assay: Radiation induced fibrosis after 40 Gy irradiation; assay type: in vivo; conditions: hamsters subject to 40 Gy irradiation; FIG. 7
[6] = in the presence of peptides and phospholipids

SMILES	form of the MDA adducts [1]	reaction with MDA / trapping of MDA (formation of MDA adducts) [1]	also measured
CC(C)(O)c1c(N)cc(Cl)c2c(C3CC3)noc12 [Compound 16, 2-(6-amino-4-chloro-3-cyclopropylbenzisoxazol-7-yl)propan-2-ol]	a majority of the adducts were bis-oxaminal	quickly react with MDA to form MDA adducts; also recorded: reacts and traps MDA	
CC(C)(O)c1c(N)cnc2ccc(Cl)cc12 [Compound 2, 2-(3-amino-6-chloroquinolin-4-yl)propan-2-ol]		quickly react with MDA to form MDA adducts; also recorded: reacts and traps MDA	
CC(C)(O)c1nc2ccc(Cl)cc2cc1N [Compound 9]	in both the imine form and the oxaminal form	reacted with MDA and formed MDA adducts; also recorded: reacts and traps MDA	reaction with and trapping of MDA ([2]; FIG. 1): rapidly reacts with and traps; also recorded: decrease aldehyde (e.g., MDA and HNE) concentration in a time-dependent manner; trapping of MDA [2, 6]: rapidly traps MDA and HNE; efficacy against contact dermatitis (contact dermatitis): effective; efficacy against allergic dermatitis (allergic dermatitis): effective; other chemokines, such as eotaxin, IL-12, IP-10, LIF, MCP-1, MIG, MIP, and RANTES (circulating cytokines): decreased; anti-inflammatory cytokines, such as IL-10 (circulating cytokines; FIG. 4): elevated; proinflammatory cytokines, such as IL-5 and IL-1β, IL-17, and TNF (circulating cytokines; FIGS. 3 and 4): broad downregulation; also recorded: reduction; aldehyde-mediated cell death in neurons (LDH assay) [3]: prevented aldehyde-mediated cell death in neurons; reaction with and trapping of HNE ([4]; FIG. 1): rapidly reacts with and traps; also recorded: decrease aldehyde (e.g., MDA and HNE) concentration in a time-dependent manner; trapping of HNE [4, 6]: rapidly traps MDA and HNE; radiation induced fibrosis [5]: diminishes radiation induced fibrosis
CC(C)(O)c1c(N)cnc2ccc(Cl)c(F)c12 [Compound 1, 2-(3-amino-6-chloro-5-fluoroquinolin-4-yl)propan-2-ol]	a majority of the adducts were bis-oxaminal	quickly react with MDA to form MDA adducts; also recorded: reacts and traps MDA	
CC(C)(O)c1c(N)cc2onc(C3CC3)c2c1Cl [Compound 14, 2-(6-amino-4-chloro-3-cyclopropylbenzisoxazol-5-yl)propan-2-ol]	a majority of the adducts were bis-oxaminal	quickly react with MDA to form MDA adducts; also recorded: reacts and traps MDA	
Cc1ccc(-c2nc3cc(N)c(C(C)(C)O)c(Cl)c3o2)cc1 [Compound 12, 2-(5-amino-7-chloro-2-p-tolylbenzoxazol-6-yl)propan-2-ol]	a majority of the adducts were bis-oxaminal	quickly react with MDA to form MDA adducts; also recorded: reacts and traps MDA	
